Measured values from publication PMC3944524, “Antimicrobial Activity of the Marine Alkaloids, Clathrodin and Oroidin, and Their Synthetic Analogues” (Marine Drugs, 2014).
Values after ≈ are worked out from the molar mass of the structure shown.

Tests used:
[1] = system: Staphylococcus aureus (ATCC 25923); assay: Broth microdilution antimicrobial assay, Staphylococcus aureus; type: cell-based; conditions: for SI (selectivity index): S. aureus MIC50 vs Huh-7 cytotoxicity IC50; for MIC90 / MIC50: Staphylococcus aureus; for MIC90: ATCC25923, 24 h; for MIC50: ATCC25923, S. aureus ATCC 25923, 24 h, sigmoidal curve fitting
Method: (§1) Clinical control strains of Enterococcus faecalis (Gram-positive, ATCC 29212), Staphylococcus aureus (Gram-positive, ATCC 25923), Escherichia coli (Gram-negative, ATCC 25922) and a fungal strain, Candida albicans (ATCC 90028), were obtained from Microbiologics Inc. (St. Cloud, MN, USA) and used for the antimicrobial screening. Bacterial strains were grown on Mueller Hinton II agar (MHA, Becton Dickinson, Franklin Lakes, NJ, USA) […] Mueller Hinton II broth (MHB, Becton Dickinson, Franklin Lakes, NJ, USA) and the Candida strain on Sabouraud dextrose agar (SDA, Becton Dickinson, Franklin Lakes, NJ, USA) plates. Media were prepared in MilliQ water, according to the manufacturer's instructions, and autoclaved at 121 °C for 15 min. […] The Candida strain was grown on SDA plates at 28 °C for 18-24 h and suspended into sterile 0.9% saline for the assay. Antimicrobial assays were performed by the broth microdilution method following the guidelines of the Clinical and Laboratory Standards Institute (CLSI) and European Committee on Antimicrobial Susceptibility Testing (EUCAST). […] The Candida suspension was prepared in sterile 0.9% saline solution, and the suspension was diluted in RPMI-1640 media (with L-glutamine, without NaHCO3 and supplemented with 2% glucose and 0.165 M MOPS, buffered to pH 7; Lonza, Basel, Switzerland) to yield a final inoculum of 2.5 × 10^3 CFU/mL in the assay. Assays were carried out in clear 96-well microtiter plates and initiated by dispensing an equal volume of microbial suspension and sample solution diluted into the assay medium. The plates were incubated for 24 h at 37 °C (for Candida, the incubation was at 28 °C for 48 h) with agitation. […] The antimicrobial activity of the samples was calculated from the absorbance values by comparing to untreated controls and expressed as the percentage inhibition of growth. Reference antibiotics were used as positive controls on every assay plate (see Figure 2 for details). […] MIC50 values were determined from the dose-response results by sigmoidal curve fitting with Origin software (OriginLab, Corp., Wellesley Hills, MA, USA).

[2] = Mammalian cell cytotoxicity, ATP assay (CellTiter-Glo); type: cell-based, human; conditions: human, Huh-7 cells, ATP assay, 24 h exposure, average of two dose-response experiments
Method: Huh-7 cells (originating from human hepatocellular carcinoma) were kindly provided by Prof. Ralf Bartenschlager (University of Heidelberg, Heidelberg, Germany). […] The cells were incubated at 37 °C in a humidified atmosphere with 5% CO2. The effect of the most promising compounds on the metabolic activity of Huh-7 hepatocytes was assessed by intracellular ATP quantitation (Promega’s CellTiter-Glo Cell Viability Assay, Madison, WI, USA). In brief, cells were seeded at 20,000 cells/well on white-walled 96-well microplates (ViewPlate, PerkinElmer Inc., Wellesley, MA, USA) and incubated at 37 °C, 5% CO2 and 95% humidity overnight and then exposed to the compounds for 24 h. Following the exposure, cells were washed with 100 µL PBS, and 50 µL of fresh assay media and 50 µL of the CellTiter-Glo reagent were added into the wells. After 2 min of shaking and 10 min incubation at rt, luminometric signal was measured using a Varioskan Flash plate reader (Thermo Fisher Scientific, Vantaa, Finland). […] The IC50 values were calculated by fitting the data into sigmoidal dose-response curves with the Origin software.

[3] = system: Enterococcus faecalis (ATCC 29212); assay: Broth microdilution antimicrobial assay, Enterococcus faecalis; type: cell-based; conditions: for SI (selectivity index): E. faecalis MIC50 vs Huh-7 cytotoxicity IC50; for MIC90 / MIC50: Enterococcus faecalis; for MIC90: ATCC29212, 24 h; for MIC50: ATCC29212, E. faecalis ATCC 29212, 24 h, sigmoidal curve fitting
Method: as §1

Compound | melting point [°C] | MIC90 [1] [µM] | MIC50 [1] [µM] | MIC90 [3] [µM] | MIC50 [3] [µM] | SI (selectivity index) [1] | IC50 at 24 h [2] [µM] | SI (selectivity index) [3]
CC(C)(C)OC(=O)n1cc(-c2cccc(NC(=O)c3cc4sccc4[nH]3)c2)nc1N [Compound 5k, tert-Butyl 4-(3-(4H-thieno[3,2-b]pyrrole-5-carboxamido)phenyl)-2-amino-1H-imidazole-1-carboxylate] | 178 to 180 | – | – | – | – | – | – | –
CC(C)(C)OC(=O)n1cc(-c2cccc(NC(=O)c3cc4cc(O)ccc4[nH]3)c2)nc1N [Compound 7, tert-Butyl 2-Amino-4-(3-(5-hydroxy-1H-indole-2-carboxamido)phenyl)-1H-imidazole-1-carboxylate] | 192 to 196 | 100 (≈ 43.3 µg/mL) | 11.6 (≈ 5.03 µg/mL) | – | – | – | 94 | –
COc1ccc2[nH]c(C(=O)Nc3cccc(-c4cn(C(=O)OC(C)(C)C)c(N)n4)c3)cc2c1 [Compound 5f, tert-Butyl 2-amino-4-(3-(5-methoxy-1H-indole-2-carboxamido)phenyl)-1H-imidazole-1-carboxylate] | 173 to 177 | – | – | – | – | – | – | –
CC(C)(C)OC(=O)n1cc(-c2cccc(NC(=O)c3cc4cc(OC(F)(F)F)ccc4[nH]3)c2)nc1N [Compound 5g, tert-Butyl 2-amino-4-(3-(5-(trifluoromethoxy)-1H-indole-2-carboxamido)phenyl)-1H-imidazole-1-carboxylate] | 185 to 187 | – | – | – | – | – | – | –
CC(C)(C)OC(=O)n1cc(-c2cccc(NC(=O)c3cc4cc(OCc5ccccc5)ccc4[nH]3)c2)nc1N [Compound 5h, tert-Butyl 2-amino-4-(3-(5-(benzyloxy)-1H-indole-2-carboxamido)phenyl)-1H-imidazole-1-carboxylate] | 140 to 143 | – | – | – | – | – | – | –
CC(C)(C)OC(=O)n1cc(-c2cccc(NC(=O)c3cc4cc(F)ccc4[nH]3)c2)nc1N [Compound 5j, tert-Butyl 2-amino-4-(3-(5-fluoro-1H-indole-2-carboxamido)phenyl)-1H-imidazole-1-carboxylate] | 189 to 192 | – | – | – | – | – | – | –
Nc1nc(-c2cccc(NC(=O)c3ccc[nH]3)c2)cn1Cc1ccccc1 [Compound 15, N-(3-(2-Amino-1-benzyl-1H-imidazol-4-yl)phenyl)-1H-pyrrole-2-carboxamide] | 229 to 232 | – | – | – | – | – | – | –
Nc1nc(-c2cccc(NCc3ccc[nH]3)c2)cn1Cc1ccccc1 [Compound 16, 4-(3-(((1H-Pyrrol-2-yl)methyl)amino)phenyl)-1-benzyl-1H-imidazol-2-amine] | 165 to 168 | – | – | – | – | – | – | –
Cl.Nc1nc(-c2cccc(NC(=O)c3cc4cc(O)ccc4[nH]3)c2)c[nH]1 [Compound 8, 2-Amino-4-(3-(5-hydroxy-1H-indole-2-carboxamido)phenyl)-1H-imidazol-3-ium chloride] | 248 to 252 | 100 | 40.5 | – | – | >2.5 | > 100 | –

Second part, led by results:

melting point [°C] | MIC90 [1] [µM] | MIC50 [1] [µM] | MIC90 [3] [µM] | MIC50 [3] [µM] | Compound | SI (selectivity index) [1] | IC50 at 24 h [2] [µM] | SI (selectivity index) [3]
255 to 260 | – | – | – | – | Cl.Nc1nc(-c2cccc(NC(=O)c3cc4cc(OC(F)(F)F)ccc4[nH]3)c2)c[nH]1 [Compound 6g, 2-Amino-4-(3-(5-(trifluoromethoxy)-1H-indole-2-carboxamido)phenyl)-1H-imidazol-3-ium chloride] | – | – | –
237 to 241 | 50 | 11.9 | – | – | COc1ccc2[nH]c(C(=O)Nc3cccc(-c4c[nH]c(N)n4)c3)cc2c1.Cl [Compound 6f, 2-Amino-4-(3-(5-methoxy-1H-indole-2-carboxamido)phenyl)-1H-imidazol-3-ium chloride] | 2.7 | 32.2 | –
– | 75 (≈ 24.9 µg/mL) | 10.8 (≈ 3.58 µg/mL) | 100 (≈ 33.1 µg/mL) | 54.2 (≈ 18 µg/mL) | CNc1nc(-c2cccc(NC(=O)c3cc4ccccc4[nH]3)c2)c[nH]1 [Compound 6l] | 4.9 | 52.3 | 1.0
201 to 204 | 50 | 7.2 | – | – | Cl.Nc1nc(-c2cccc(NC(=O)c3cc4cc(Cl)ccc4[nH]3)c2)c[nH]1 [Compound 6i, 2-Amino-4-(3-(5-chloro-1H-indole-2-carboxamido)phenyl)-1H-imidazol-3-ium chloride] | 3.0 | 21.7 | –
198 to 202 | 100 | 27.1 | – | – | Cl.Nc1nc(-c2cccc(NC(=O)c3cc4sccc4[nH]3)c2)c[nH]1 [Compound 6k, 4-(3-(4H-Thieno[3,2-b]pyrrole-5-carboxamido)phenyl)-2-amino-1H-imidazol-3-ium chloride] | 2.0 | 53.6 | –
202 to 205 | 50 | 22.1 | 100 | 27.3 | Cl.Nc1nc(-c2cccc(NC(=O)c3cc4cc(F)ccc4[nH]3)c2)c[nH]1 [Compound 6j, 2-Amino-4-(3-(5-fluoro-1H-indole-2-carboxamido)phenyl)-1H-imidazol-3-ium chloride] | 0.9 | 19.8 | 0.7
– | 50 (≈ 15.9 µg/mL) | 29.4 (≈ 9.33 µg/mL) | 50 (≈ 15.9 µg/mL) | 34 (≈ 10.8 µg/mL) | Nc1nc(-c2cccc(NC(=O)c3cc4ccccc4[nH]3)c2)c[nH]1 [Compound 6d] | 1.4 | 42.3 | 1.2
